Results from PubChem BioAssay AID330 (DTP/NCI, 2004).
Where “and” joins values, the source holds several entries; their conditions need not be identical. Identical values can stand only once. Toxic doses and inconclusive results are not listed. How the source made its calls: active means survival T/C of 150% or more; inactive means T/C below 125% in these data.

Test system: P388 leukemia ip, CD2F1 mice, survival T/C
Assay: NCI In Vivo Anticancer Drug Screen. Data for tumor model P388 Leukemia (intraperitoneal) in CD2F1 (CDF1) mice
Settings: endpoint: median survival time, higher = longer survival
Outline: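 Mice carrying the transplanted tumor received test compound or vehicle. Survival was recorded in each group, and the value is the treated-group measurement divided by that of the vehicle-treated control group.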

[1] = dose: 50.0 mg/kg/injection, schedule: Q01DX005 (ip), vehicle: Klucel (hydroxypropylcellulose) (HPC)
[2] = dose: 100.0 mg/kg/injection, schedule: Q01DX005 (ip), vehicle: Klucel (hydroxypropylcellulose) (HPC)
[3] = dose: 200.0 mg/kg/injection, schedule: Q01DX005 (ip), vehicle: Klucel (hydroxypropylcellulose) (HPC)
[4] = dose: 60.0 mg/kg/injection, schedule: Q01DX005 (ip), vehicle: saline with Tween-80
[5] = dose: 120.0 mg/kg/injection, schedule: Q01DX005 (ip), vehicle: saline with Tween-80
[6] = dose: 240.0 mg/kg/injection, schedule: Q01DX005 (ip), vehicle: saline with Tween-80
[7] = dose: 6.25 mg/kg/injection, schedule: Q01DX005 (ip), vehicle: saline with Tween-80
[8] = dose: 100.0 mg/kg/injection, schedule: Q04DX003 (ip), vehicle: Klucel (hydroxypropylcellulose) (HPC)
[9] = dose: 200.0 mg/kg/injection, schedule: Q04DX003 (ip), vehicle: Klucel (hydroxypropylcellulose) (HPC)
[10] = dose: 400.0 mg/kg/injection, schedule: Q04DX003 (ip), vehicle: Klucel (hydroxypropylcellulose) (HPC)

Measured: T/C

Nc1ccc(N)c2c1C(=O)c1c(N)ccc(N)c1C2=O
inactive: [1] 102 % of control | [2] 100 % of control | [3] 101 % of control

O=C1C=C(NCc2ccccc2)CCC1
inactive: dose: 1.56 mg/kg/injection, schedule: Q01DX009 (ip), vehicle: saline 109 % of control | dose: 3.12 mg/kg/injection, schedule: Q01DX009 (ip), vehicle: saline 113 % of control | dose: 6.25 mg/kg/injection, schedule: Q01DX009 (ip), vehicle: saline 100 % of control

Cc1ccc2c(c1)CN(C13CC4CC(CC(C4)C1)C3)CO2
inactive: dose: 66.0 mg/kg/injection, schedule: Q04DX003 (ip), vehicle: saline with Tween-80 95 % of control | dose: 100.0 mg/kg/injection, schedule: Q04DX003 (ip), vehicle: saline with Tween-80 100 % of control | dose: 150.0 mg/kg/injection, schedule: Q04DX003 (ip), vehicle: saline with Tween-80 100 % of control | dose: 200.0 mg/kg/injection, schedule: Q04DX003 (ip), vehicle: saline with Tween-80 105 % of control | dose: 400.0 mg/kg/injection, schedule: Q04DX003 (ip), vehicle: saline with Tween-80 115 % of control

CC1C[N+]2(CNC(=O)C3=C(O)C4(O)C(=O)C5=C(O)c6c(O)cccc6C(C)(O)C5CC4C(N(C)C)C3=O)CC(C)O[B-]2(c2ccccc2)O1 (configuration not stated)
inactive: [1] 110 % of control | [2] 110 % of control | [3] 100 % of control

CC(=O)NCSCC(N)C(=O)O (configuration not stated)
inactive: dose: 100.0 mg/kg/injection, schedule: Q01DX009 (ip), vehicle: saline 104 % of control | dose: 100.0 mg/kg/injection, schedule: Q04DX003 (ip), vehicle: saline 95 % of control | dose: 200.0 mg/kg/injection, schedule: Q01DX009 (ip), vehicle: saline 118 % of control | dose: 200.0 mg/kg/injection, schedule: Q04DX003 (ip), vehicle: saline 113 % of control | dose: 400.0 mg/kg/injection, schedule: Q01DX009 (ip), vehicle: saline 90 % of control | dose: 400.0 mg/kg/injection, schedule: Q04DX003 (ip), vehicle: saline 90 % of control

CCCCC(CC)C(=O)OCCNC(=O)C(C)OC(=O)C(CC)CCCC (configuration not stated)
inactive: dose: 25.0 mg/kg/injection, schedule: Q01DX005 (ip), vehicle: Klucel (hydroxypropylcellulose) (HPC) 105 % of control | [1] 102 % of control | [2] 95 % of control | [3] 105 % of control

O=C(O)C1CCCCC1c1c2ccc(=O)c(O)c-2oc2c(O)c(O)ccc12 (configuration not stated)
inactive: dose: 15.0 mg/kg/injection, schedule: Q01DX005 (ip), vehicle: saline with Tween-80 102 % of control | dose: 30.0 mg/kg/injection, schedule: Q01DX005 (ip), vehicle: saline with Tween-80 102 % of control and 105 % of control | [4] 110 % of control and 111 % of control and 119 % of control | [5] 107 % of control and 111 % of control and 112 % of control | [6] 121 % of control

N#CC1Sc2ccccc2N1C(=O)OCc1ccccc1 (configuration not stated)
inactive: [4] 93 % of control | [5] 92 % of control | [6] 91 % of control

CC(C)N=C(NC(C)C)c1ccc(NC(=O)Nc2ccc(NC(=O)Nc3ccc(C(=NC(C)C)NC(C)C)cc3)cc2)cc1
inactive: dose: 1.56 mg/kg/injection, schedule: Q01DX005 (ip), vehicle: saline with Tween-80 111 % of control | dose: 3.13 mg/kg/injection, schedule: Q01DX005 (ip), vehicle: saline with Tween-80 108 % of control and 113 % of control | [7] 104 % of control and 124 % of control

N#CC(Br)(Br)C(=O)c1nc(N)nc(N)n1
inactive: dose: 3.12 mg/kg/injection, schedule: Q01DX005 (ip), vehicle: saline with Tween-80 96 % of control | [7] 100 % of control | dose: 12.5 mg/kg/injection, schedule: Q01DX005 (ip), vehicle: saline with Tween-80 104 % of control

O=C(CCCl)Nc1c(Cl)cccc1Cl
inactive: dose: 50.0 mg/kg/injection, schedule: Q01DX005 (ip), vehicle: saline with Tween-80 96 % of control | dose: 100.0 mg/kg/injection, schedule: Q01DX005 (ip), vehicle: saline with Tween-80 99 % of control | dose: 200.0 mg/kg/injection, schedule: Q01DX005 (ip), vehicle: saline with Tween-80 96 % of control

CCN(c1ccccc1)c1cc(=O)nc2ccccn12
inactive: dose: 60.0 mg/kg/injection, schedule: Q01DX005 (ip), vehicle: saline 107 % of control | dose: 120.0 mg/kg/injection, schedule: Q01DX005 (ip), vehicle: saline 105 % of control | dose: 240.0 mg/kg/injection, schedule: Q01DX005 (ip), vehicle: saline 104 % of control

CC(=O)[O-].CC(=O)[O-].CC(=O)[O-].CC(=O)[O-].Cn1c(=O)c2[nH]cnc2n(C)c1=O.Cn1c(=O)c2[nH]cnc2n(C)c1=O.[Rh+2].[Rh+2]
inactive: dose: 3.12 mg/kg/injection, schedule: Q04DX002 (ip), vehicle: Klucel (hydroxypropylcellulose) (HPC) 100 % of control | dose: 6.25 mg/kg/injection, schedule: Q04DX002 (ip), vehicle: Klucel (hydroxypropylcellulose) (HPC) 101 % of control and 120 % of control | dose: 12.5 mg/kg/injection, schedule: Q04DX002 (ip), vehicle: Klucel (hydroxypropylcellulose) (HPC) 101 % of control and 118 % of control | dose: 25.0 mg/kg/injection, schedule: Q04DX002 (ip), vehicle: Klucel (hydroxypropylcellulose) (HPC) 103 % of control and 110 % of control | dose: 50.0 mg/kg/injection, schedule: Q04DX002 (ip), vehicle: Klucel (hydroxypropylcellulose) (HPC) 103 % of control

O=C(NN=C(c1ccccc1)c1ccccc1)C(Cl)Cl
inactive: dose: 42.0 mg/kg/injection, schedule: Q01DX009 (ip), vehicle: saline with Tween-80 99 % of control | dose: 84.0 mg/kg/injection, schedule: Q01DX009 (ip), vehicle: saline with Tween-80 97 % of control | dose: 168.0 mg/kg/injection, schedule: Q01DX009 (ip), vehicle: saline with Tween-80 97 % of control

CCN(CC)CN1C(=O)CC2(C1=O)c1ccccc1-c1ccccc12
inactive: dose: 100.0 mg/kg/injection, schedule: Q01DX001 (ip), vehicle: water 109 % of control | dose: 200.0 mg/kg/injection, schedule: Q01DX001 (ip), vehicle: water 106 % of control | dose: 400.0 mg/kg/injection, schedule: Q01DX001 (ip), vehicle: water 110 % of control

O=c1n(-c2ccccc2)c(=O)n2n1C1C=CC2C23C=CC12CCCC3 (configuration not stated)
inactive: [8] 96 % of control | [9] 96 % of control | [10] 96 % of control

O=C(O)c1cc(C(=O)CC(=O)c2cc(C(=O)O)c(O)c3ccccc23)c2ccccc2c1O
inactive: dose: 50.0 mg/kg/injection, schedule: Q01DX009 (ip), vehicle: saline with Tween-80 94 % of control | dose: 100.0 mg/kg/injection, schedule: Q01DX009 (ip), vehicle: saline with Tween-80 88 % of control

CCN(CC)CCCOC(=O)N(Cc1ccc(Cl)cc1)C1CC1
inactive: dose: 25.0 mg/kg/injection, schedule: Q01DX009 (ip), vehicle: saline + Tween-80 + alcohol 108 % of control | dose: 50.0 mg/kg/injection, schedule: Q01DX009 (ip), vehicle: saline + Tween-80 + alcohol 108 % of control | dose: 100.0 mg/kg/injection, schedule: Q01DX009 (ip), vehicle: saline + Tween-80 + alcohol 110 % of control

OC(CCl)Cn1nc2ccc3ccccc3c2n1 (configuration not stated)
inactive: [1] 102 % of control | [2] 100 % of control | [8] 103 % of control | [3] 101 % of control | [9] 102 % of control | [10] 96 % of control

C[OH2+].[Cl][Cu+].[Cl][Cu+].[NH-]CCC([OH2+])CC[NH-]
inactive: dose: 1.56 mg/kg/injection, schedule: Q01DX005 (ip), vehicle: Klucel (hydroxypropylcellulose) (HPC) 96 % of control | dose: 3.12 mg/kg/injection, schedule: Q01DX005 (ip), vehicle: Klucel (hydroxypropylcellulose) (HPC) 103 % of control | dose: 6.25 mg/kg/injection, schedule: Q01DX005 (ip), vehicle: Klucel (hydroxypropylcellulose) (HPC) 106 % of control and 91 % of control
